Measured values: patent publication US20240352022A1, “GROUP OF IMB-C5 SERIES COMPOUNDS HAVING ANTI-CORONAVIRUS ACTIVITY AND APPLICATION THEREOF” (priority 2021, published 2024)

Experiments:
HCoV-229E = test: anti-HCoV-229E activity in Huh7 cells by cytopathic effect (CPE) assay; type: cell-based, Human coronavirus HCoV-229E; details: Human coronavirus 229E, Huh-7, HCoV-229E 100 TCID50 in Huh7 cells, about 48 h
in vitro = details: human

Structure (SMILES)	EC50 (HCoV-229E)	CC50 (in vitro)
Cn1c(=O)c2c(nc(NCCO)n2Cc2ccc(F)cc2)n(C)c1=O [IMB-2-2, 7-(4-fluorobenzyl)-8-((2-hydroxyethyl)amino)-1,3-dimethyl-3,7-dihydro-1H-purine-2,6-dione]	3.15 µM	> 200 µM
Cn1c(=O)c2c(nc(NCCO)n2Cc2ccccc2Br)n(C)c1=O [IMB-2-6, 7-(2-bromobenzyl)-8-((2-hydroxyethyl)amino)-1,3-dimethyl-3,7-dihydro-1H-purine-2,6-dione]	12.8 µM	> 200 µM
COc1cccc(Cn2c(-n3ccnc3)nc3c2c(=O)n(C)c(=O)n3C)c1 [IMB-2-26, 8-(1H-imidazol-1-yl)-7-(3-methoxybenzyl)-1,3-dimethyl-3,7-dihydro-1H-purine-2,6-dione]	38.5 µM	> 200 µM
COc1cccc(Cn2c(N3CCN(c4ccc(F)cc4)CC3)nc3c2c(=O)n(C)c(=O)n3C)c1 [IMB-2-31, 8-(4-(4-fluorophenyl)piperazin-1-yl)-7-(3-methoxybenzyl)-1,3-dimethyl-3,7-dihydro-1H-purine-2,6-dione]	38.5 µM	> 200 µM
COC(=O)c1ccc2c(ccn2-c2nc3c(c(=O)n(C)c(=O)n3C)n2Cc2cccc(OC)c2)c1 [IMB-2-32, Methyl-1-(7-(3-methoxybenzyl)-1,3-dimethyl-2,6-dioxo-2,3,6,7-tetrahydro-1H-purin-8-yl)-1H-indole-5-carboxylate]	5.75 µM	51.7 µM
COc1cccc(Cn2c(NCCO)nc3c2c(=O)n(CC2CCOCC2)c(=O)n3C)c1 [IMB-3-6, 8-((2-hydroxyethyl)amino)-7-(3-methoxybenzyl)-3-methyl-1-((tetrahydro-2H-pyran-4-yl)methyl)-3,7-dihydro-1H-purine-2,6-dione]	–	> 200 µM
COc1cccc(Cn2c(NCCO)nc3c2c(=O)n(Cc2ccc(F)cc2)c(=O)n3C)c1 [IMB-3-13, 1-(4-fluorobenzyl)-8-((2-hydroxyethyl)amino)-7-(3-methoxybenzyl)-3-methyl-3,7-dihydro-1H-purine-2,6-dione]	17.2 µM	46.2 µM
COc1ccc(Cn2c(=O)c3c(nc(NCCO)n3Cc3cccc(OC)c3)n(C)c2=O)cc1 [IMB-3-15, 8-((2-hydroxyethyl)amino)-7-(3-methoxybenzyl)-1-(4-methoxybenzyl)-3-methyl-3,7-dihydro-1H-purine-2,6-dione]	17.2 µM	> 200 µM
COc1cccc(Cn2c(NCCO)nc3c2c(=O)n(Cc2ccncc2)c(=O)n3C)c1 [IMB-3-16, 8-((2-hydroxyethyl)amino)-7-(3-methoxybenzyl)-3-methyl-1-(pyridin-4-ylmethyl)-3,7-dihydro-1H-purine-2,6-dione]	22.2 µM	115 µM
CCn1c(=O)c2c(nc(Br)n2Cc2cccc(OC)c2)n(C)c1=O [IMB-3-30, 8-bromo-1-ethyl-7-(3-methoxybenzyl)-3-methyl-3,7-dihydro-1H-purine-2,6-dione]	4.28 µM	155 µM
C#CCCn1c(=O)c2c(nc(NCCO)n2Cc2cccc(OC)c2)n(C)c1=O [IMB-3-45, 1-(but-3-yn-1-yl)-8-((2-hydroxyethyl)amino)-7-(3-methoxybenzyl)-3-methyl-3,7-dihydro-1H-purine-2,6-dione]	66.7 µM	> 200 µM
CCn1c(=O)c2c(nc(NCCO)n2Cc2cccc(OC)c2)n(C)c1=O [IMB-3-46, ethyl-8-((2-hydroxyethyl)amino)-7-(3-methoxybenzyl)-3-methyl-3,7-dihydro-1H-purine-2,6-dione]	155 µM	> 200 µM
CCCn1c(=O)c2c(nc(NCCO)n2Cc2cccc(OC)c2)n(C)c1=O [IMB-3-47, 8-((2-hydroxyethyl)amino)-7-(3-methoxybenzyl)-3-methyl-1-propyl-3,7-dihydro-1H-purine-2,6-dione]	85.9 µM	> 200 µM
COc1cccc(Cn2c(NCCO)nc3c2c(=O)n(CCNC(=O)OC(C)(C)C)c(=O)n3C)c1 [IMB-3-57, tert-butyl(2-(8-((2-hydroxyethyl)amino)-7-(3-methoxybenzyl)-3-methyl-2,6-dioxo-2,3,6,7-tetrahydro-1H-purin-1-yl)ethyl)carbamate]	66.7 µM	> 200 µM
